Laboratory results from patent US20240059671A1, “TYROSINE KINASE 2 (TYK2) DEGRADATION COMPOUNDS AND METHODS OF USE” (CULLGEN (SHANGHAI), INC., priority 2020, published 2024).
Each block holds one compound with its values, some of them ahead of it.

Target: TYK2 (Homo sapiens, UniProt P29597)
Assay: TYK2 protein degradation in MOLT-4 cells by immunoblotting
Format: cell-based
Design: endogenous in cells; host or cells: MOLT-4
Details: MOLT-4 cells, 24 hours
Description: MOLT-4 cells were treated with compounds at 0.5 and 5 μM concentrations for 24 hours.
MOLT-4 cells were treated with CPD-038, CPD-039, and CPD-040 at 0.04, 0.2, 1, and 5 μM concentrations for 24 hours.
MOLT-4 or NOMO-1 cells were cultured at 37° C. with 5% CO2 in RPMI 1640 Medium supplemented with 10% fetal bovine serum. Cells were authenticated using the short tandem repeat (STR) assays. Mycoplasma test results were negative.
Cultured cells were washed with cold PBS once and lysed in cold RIPA buffer supplemented with protease inhibitors and phosphatase inhibitors (Beyotime Biotechnology). The solutions were then incubated at 4° C. for 30 minutes with gentle agitation to fully lyse cells. Cell lysates were centrifuged at 13,000 rpm for 10 minutes at 4° C. and pellets were discarded. Total protein concentrations in the lysates were determined by BCA assays (Beyotime Biotechnology). Cell lysates were mixed with Laemmli loading buffer to 1× and heated at 99° C. for 5 min. Proteins were resolved on SDS-PAGE and visualized by chemiluminescence. Images were taken by a ChemiDoc MP Imaging system (Bio-Rad). Protein bands were quantitated using the accompanied software provided by Bio-Rad.
The percentage of TYK2 protein degradation of each compound at 0.5 and 5 μM determined in MOLT-4 cells as described in Methods.

Chain of TYK2 (P29597 whole entry): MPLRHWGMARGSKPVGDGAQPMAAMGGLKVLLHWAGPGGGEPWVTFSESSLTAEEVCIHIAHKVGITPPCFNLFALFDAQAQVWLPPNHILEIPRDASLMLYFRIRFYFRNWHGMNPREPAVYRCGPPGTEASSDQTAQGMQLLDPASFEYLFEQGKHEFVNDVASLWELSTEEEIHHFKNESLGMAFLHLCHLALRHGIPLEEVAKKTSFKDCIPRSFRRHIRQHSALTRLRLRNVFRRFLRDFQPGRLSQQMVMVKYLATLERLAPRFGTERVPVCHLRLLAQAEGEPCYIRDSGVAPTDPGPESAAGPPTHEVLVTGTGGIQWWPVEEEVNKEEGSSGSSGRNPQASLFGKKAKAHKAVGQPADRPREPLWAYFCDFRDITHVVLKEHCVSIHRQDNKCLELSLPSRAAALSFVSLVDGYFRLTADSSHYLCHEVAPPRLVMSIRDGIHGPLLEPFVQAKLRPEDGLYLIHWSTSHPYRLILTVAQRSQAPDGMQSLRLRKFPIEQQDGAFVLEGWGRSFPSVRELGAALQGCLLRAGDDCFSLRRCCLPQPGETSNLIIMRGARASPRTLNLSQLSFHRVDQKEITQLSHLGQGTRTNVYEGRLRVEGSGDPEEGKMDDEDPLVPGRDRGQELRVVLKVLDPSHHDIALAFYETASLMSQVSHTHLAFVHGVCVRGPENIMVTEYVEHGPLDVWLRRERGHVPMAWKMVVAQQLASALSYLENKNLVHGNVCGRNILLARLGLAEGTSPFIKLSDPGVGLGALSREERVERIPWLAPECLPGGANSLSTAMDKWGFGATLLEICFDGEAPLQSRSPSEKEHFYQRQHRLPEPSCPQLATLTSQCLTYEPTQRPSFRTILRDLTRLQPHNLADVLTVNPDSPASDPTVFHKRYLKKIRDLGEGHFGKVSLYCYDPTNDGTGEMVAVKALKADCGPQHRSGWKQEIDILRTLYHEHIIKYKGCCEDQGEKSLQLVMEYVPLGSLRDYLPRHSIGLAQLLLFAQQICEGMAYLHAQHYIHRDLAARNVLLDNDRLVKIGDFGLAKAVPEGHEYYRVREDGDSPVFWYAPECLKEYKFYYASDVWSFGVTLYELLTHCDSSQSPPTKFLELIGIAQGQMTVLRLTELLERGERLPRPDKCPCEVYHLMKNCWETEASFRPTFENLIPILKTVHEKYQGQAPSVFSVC

Compound: CNC(=O)c1nnc(NC(=O)C2CC2)cc1Nc1cccc(-c2ncn(CCNC(=O)CCCCCCCNc3cccc4c3C(=O)N(C3CCC(=O)NC3=O)C4=O)n2)c1OC (centres unmarked) [CPD-007, 6-(Cyclopropanecarboxamido)-4-((3-(1-(2-(8-((2-(2,6-dioxopiperidin-3-yl)-1,3-dioxoisoindolin-4-yl)amino)octanamido)ethyl)-1H-1,2,4-triazol-3-yl)-2-methoxyphenyl)amino)-N-methylpyridazine-3-carboxamide]
- TYK2 Degradation (0.5 μM): ≤20%

Compound: CNC(=O)c1nnc(NC(=O)C2CC2)cc1Nc1cccc(-c2ncn(CCNC(=O)CCNc3cccc4c3C(=O)N(C3CCC(=O)NC3=O)C4=O)n2)c1OC (centres unmarked) [CPD-002, 6-(Cyclopropanecarboxamido)-4-((3-(1-(2-(3-((2-(2,6-dioxopiperidin-3-yl)-1,3-dioxoisoindolin-4-yl)amino)propanamido)ethyl)-1H-1,2,4-triazol-3-yl)-2-methoxyphenyl)amino)-N-methylpyridazine-3-carboxamide]
- TYK2 Degradation (0.5 μM): ≤20%

Compound: CNC(=O)c1nnc(NC(=O)C2CC2)cc1Nc1cccc(-c2ncn(CCNC(=O)CCCCNc3ccc4c(c3)C(=O)N(C3CCC(=O)NC3=O)C4=O)n2)c1OC (centres unmarked) [CPD-016, 6-(Cyclopropanecarboxamido)-4-((3-(1-(2-(5-((2-(2,6-dioxopiperidin-3-yl)-1,3-dioxoisoindolin-5-yl)amino)pentanamido)ethyl)-1H-1,2,4-triazol-3-yl)-2-methoxyphenyl)amino)-N-methylpyridazine-3-carboxamide]
- TYK2 Degradation (0.5 μM): ≤20%

Compound: CNC(=O)c1nnc(NC(=O)CNC(=O)CCCCCCCCCNC(=O)C[C@H](NC(=O)[C@@H]2C[C@@H](O)CN2C(=O)[C@@H](NC(=O)C2(F)CC2)C(C)(C)C)c2ccc(-c3scnc3C)cc2)cc1Nc1cccc(-c2ncn(C)n2)c1OC [CPD-094, 6-(2-(10-((S)-3-((2S,4R)-1-((S)-2-(1-Fluorocyclopropane-1-carboxamido)-3,3-dimethylbutanoyl)-4-hydroxypyrrolidine-2-carboxamido)-3-(4-(4-methylthiazol-5-yl)phenyl)propanamido)decanamido)acetamido)-4-((2-methoxy-3-(1-methyl-1H-1,2,4-triazol-3-yl)phenyl)amino)-N-methylpyridazine-3-carboxamide]
- TYK2 Degradation (MOLT-4, 0.5 μM): B (B: <60% TYK2 degradation, and >20% TYK2 degradation)
- TYK2 Degradation (MOLT-4, 5 μM): B (B: <60% TYK2 degradation, and >20% TYK2 degradation)

Compound: CNC(=O)c1nnc(NC(=O)C2CC2)cc1Nc1cccc(-c2ncn(CCNC(=O)CCNc3ccc4c(c3)C(=O)N(C3CCC(=O)NC3=O)C4=O)n2)c1OC (centres unmarked) [CPD-014, 6-(Cyclopropanecarboxamido)-4-((3-(1-(2-(3-((2-(2,6-dioxopiperidin-3-yl)-1,3-dioxoisoindolin-5-yl)amino)propanamido)ethyl)-1H-1,2,4-triazol-3-yl)-2-methoxyphenyl)amino)-N-methylpyridazine-3-carboxamide]
- TYK2 Degradation (0.5 μM): ≤20%

Other lines, results leading:

- TYK2 Degradation (MOLT-4, 0.5 μM): C (C: ≤20% TYK2 degradation)
- TYK2 Degradation (MOLT-4, 5 μM): C (C: ≤20% TYK2 degradation)
Compound: CNC(=O)c1nnc(NC(=O)CNC(=O)CCCCCCCCOc2cc(-c3scnc3C)ccc2CNC(=O)[C@@H]2C[C@@H](O)CN2C(=O)[C@@H](NC(=O)C2(F)CC2)C(C)(C)C)cc1Nc1cccc(-c2ncn(C)n2)c1OC [CPD-108, 6-(2-(9-(2-(((2S,4R)-1-((S)-2-(1-Fluorocyclopropane-1-carboxamido)-3,3-dimethylbutanoyl)-4-hydroxypyrrolidine-2-carboxamido)methyl)-5-(4-methylthiazol-5-yl)phenoxy)nonanamido)acetamido)-4-((2-methoxy-3-(1-methyl-1H-1,2,4-triazol-3-yl)phenyl)amino)-N-methylpyridazine-3-carboxamide]

- TYK2 Degradation (MOLT-4, 0.5 μM): C (C: ≤20% TYK2 degradation)
Compound: CNC(=O)c1nnc(NC(=O)CNC(=O)CCNC(=O)C[C@H](NC(=O)[C@@H]2C[C@@H](O)CN2C(=O)[C@@H](NC(=O)C2(F)CC2)C(C)(C)C)c2ccc(-c3scnc3C)cc2)cc1Nc1cccc(-c2ncn(C)n2)c1OC [CPD-087, 6-(2-(3-((S)-3-((2S,4R)-1-((S)-2-(1-Fluorocyclopropane-1-carboxamido)-3,3-dimethylbutanoyl)-4-hydroxypyrrolidine-2-carboxamido)-3-(4-(4-methylthiazol-5-yl)phenyl)propanamido)propanamido)acetamido)-4-((2-methoxy-3-(1-methyl-1H-1,2,4-triazol-3-yl)phenyl)amino)-N-methylpyridazine-3-carboxamide]

- TYK2 Degradation (0.5 μM): ≤20%
- TYK2 Degradation (5 μM): ≤20%
Compound: CNC(=O)c1nnc(NC(=O)CNC(=O)CNc2cccc3c2C(=O)N(C2CCC(=O)NC2=O)C3=O)cc1Nc1cccc(-c2ncn(C)n2)c1OC (centres unmarked) [CPD-042, 6-(2-(2-((2-(2,6-Dioxopiperidin-3-yl)-1,3-dioxoisoindolin-4-yl)amino)acetamido)acetamido)-4-((2-methoxy-3-(1-methyl-1H-1,2,4-triazol-3-yl)phenyl)amino)-N-methylpyridazine-3-carboxamide]

- TYK2 Degradation (0.5 μM): ≤20%
- TYK2 Degradation (5 μM): ≤20%
Compound: CNC(=O)c1nnc(NC(=O)CNC(=O)CCCCCNc2ccc3c(c2)C(=O)N(C2CCC(=O)NC2=O)C3=O)cc1Nc1cccc(-c2ncn(C)n2)c1OC (centres unmarked) [CPD-058, 6-(2-(6-((2-(2,6-Dioxopiperidin-3-yl)-1,3-dioxoisoindolin-5-yl)amino)hexanamido)acetamido)-4-((2-methoxy-3-(1-methyl-1H-1,2,4-triazol-3-yl)phenyl)amino)-N-methylpyridazine-3-carboxamide]

- TYK2 Degradation (MOLT-4, 0.5 μM): C (C: ≤20% TYK2 degradation)
- TYK2 Degradation (MOLT-4, 5 μM): C (C: ≤20% TYK2 degradation)
Compound: CNC(=O)c1nnc(NC(=O)CNC(=O)CCCCCNC(=O)C[C@H](NC(=O)[C@@H]2C[C@@H](O)CN2C(=O)[C@@H](NC(=O)C2(F)CC2)C(C)(C)C)c2ccc(-c3scnc3C)cc2)cc1Nc1cccc(-c2ncn(C)n2)c1OC [CPD-090, 6-(2-(6-((S)-3-((2S,4R)-1-((S)-2-(1-Fluorocyclopropane-1-carboxamido)-3,3-dimethylbutanoyl)-4-hydroxypyrrolidine-2-carboxamido)-3-(4-(4-methylthiazol-5-yl)phenyl)propanamido)hexanamido)acetamido)-4-((2-methoxy-3-(1-methyl-1H-1,2,4-triazol-3-yl)phenyl)amino)-N-methylpyridazine-3-carboxamide]

- TYK2 Degradation (0.5 μM): ≤20%
- TYK2 Degradation (5 μM): 40%
Compound: CNC(=O)c1nnc(NC(=O)CNC(=O)CCCCC(=O)N[C@H](C(=O)N2C[C@H](O)C[C@H]2C(=O)NCc2ccc(-c3scnc3C)cc2)C(C)(C)C)cc1Nc1cccc(-c2ncn(C)n2)c1OC [CPD-036, N^1-((S)-1-((2S,4R)-4-Hydroxy-2-((4-(4-methylthiazol-5-yl)benzyl)carbamoyl)pyrrolidin-1-yl)-3,3-dimethyl-1-oxobutan-2-yl)-N^6-(2-((5-((2-methoxy-3-(1-methyl-1H-1,2,4-triazol-3-yl)phenyl)amino)-6-(methylcarbamoyl)pyridazin-3-yl)amino)-2-oxoethyl)adipamide]
